Reference: patent US20230373985A1 (Origenis Gmbh, priority 2020, published 2023)

Experiments:
[1] = molecular target: T1, G2019S human LRRK2, catalytic site (Homo sapiens, UniProt Q5S007, G2019S); test: TR-FRET LanthaScreen Eu Kinase Binding Assay, LRRK2 G2019S; conditions: LRRK2(G2019); one range stated for wt and G2019; read-out: IC50, Activity Toward LRRK2(G2019)
T1 construct: G2019S human LRRK2, catalytic site; purchased ThermoFisher
How it was run: (§1)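 Emission ratios from TR-FRET were analysed per the LanthaScreen binding protocol after 1 h room-temperature incubation of compound, kinase/antibody and Kinase Tracer 236. Final levels were 5 nM LRRK2 with 2 nM Eu-anti-GST and 10 nM tracer, or 8 nM NUAK1 with 2 nM Eu-anti-His and 5 nM tracer.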

[2] = molecular target: T2, wt human LRRK2, catalytic site (Homo sapiens, UniProt Q5S007); test: TR-FRET LanthaScreen Eu Kinase Binding Assay, LRRK2 wt; conditions: one range stated for wt and G2019, read-out: IC50, Activity Toward LRRK2(Wt)
T2 construct: 5 nM wt human LRRK2, catalytic site; purchased ThermoFisher
T2 sequence (Q5S007 970-2527 limits assumed): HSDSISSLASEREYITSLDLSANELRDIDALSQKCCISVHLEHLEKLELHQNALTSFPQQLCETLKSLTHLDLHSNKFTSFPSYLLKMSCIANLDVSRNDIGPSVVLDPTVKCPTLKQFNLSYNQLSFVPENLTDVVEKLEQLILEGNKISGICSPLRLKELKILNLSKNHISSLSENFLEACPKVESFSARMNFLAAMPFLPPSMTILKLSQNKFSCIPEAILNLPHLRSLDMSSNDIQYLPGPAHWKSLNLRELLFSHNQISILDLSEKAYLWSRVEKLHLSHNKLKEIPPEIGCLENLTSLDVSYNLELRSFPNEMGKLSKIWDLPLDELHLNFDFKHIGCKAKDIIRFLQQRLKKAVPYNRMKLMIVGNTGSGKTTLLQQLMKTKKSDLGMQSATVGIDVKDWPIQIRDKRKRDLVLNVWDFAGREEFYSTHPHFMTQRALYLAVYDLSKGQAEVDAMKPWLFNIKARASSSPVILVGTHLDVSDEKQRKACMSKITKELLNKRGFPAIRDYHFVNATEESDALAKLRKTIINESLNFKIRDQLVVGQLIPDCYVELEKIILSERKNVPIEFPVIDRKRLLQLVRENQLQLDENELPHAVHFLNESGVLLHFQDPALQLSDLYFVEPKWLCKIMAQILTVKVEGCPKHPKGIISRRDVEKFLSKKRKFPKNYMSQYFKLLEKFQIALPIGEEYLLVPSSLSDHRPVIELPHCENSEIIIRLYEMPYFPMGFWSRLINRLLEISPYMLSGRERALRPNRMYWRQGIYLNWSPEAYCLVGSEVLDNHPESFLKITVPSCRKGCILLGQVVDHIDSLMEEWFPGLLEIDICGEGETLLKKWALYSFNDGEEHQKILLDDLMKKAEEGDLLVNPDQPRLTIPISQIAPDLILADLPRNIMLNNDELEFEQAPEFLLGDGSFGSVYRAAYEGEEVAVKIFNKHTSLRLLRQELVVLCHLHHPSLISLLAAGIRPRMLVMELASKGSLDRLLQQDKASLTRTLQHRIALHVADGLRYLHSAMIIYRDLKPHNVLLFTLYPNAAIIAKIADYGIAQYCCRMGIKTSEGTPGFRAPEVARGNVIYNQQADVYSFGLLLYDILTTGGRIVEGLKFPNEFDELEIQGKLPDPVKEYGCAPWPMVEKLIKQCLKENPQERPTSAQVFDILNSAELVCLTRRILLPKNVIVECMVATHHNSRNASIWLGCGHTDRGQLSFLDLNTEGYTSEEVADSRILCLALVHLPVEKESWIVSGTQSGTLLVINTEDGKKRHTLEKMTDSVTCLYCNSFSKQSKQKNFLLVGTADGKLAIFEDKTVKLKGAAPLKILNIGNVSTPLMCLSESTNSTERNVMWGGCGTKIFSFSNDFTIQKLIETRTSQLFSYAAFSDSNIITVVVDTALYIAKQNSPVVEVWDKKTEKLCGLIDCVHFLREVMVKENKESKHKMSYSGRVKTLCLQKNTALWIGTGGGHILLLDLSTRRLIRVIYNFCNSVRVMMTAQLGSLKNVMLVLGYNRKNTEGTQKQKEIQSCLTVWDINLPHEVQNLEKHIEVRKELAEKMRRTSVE
How it was run: as §1

[3] = molecular target: T3, wt human JAK1, catalytic site (Homo sapiens, UniProt P23458); test: HTRF KinEASE assay, JAK1; format: biochemical; conditions: 2.5 μM ATP; read-out: IC50, Activity Toward JAK1
T3 construct: wt human JAK1, catalytic site; purchased ThermoFisher
T3 sequence (P23458 875-1153 limits assumed): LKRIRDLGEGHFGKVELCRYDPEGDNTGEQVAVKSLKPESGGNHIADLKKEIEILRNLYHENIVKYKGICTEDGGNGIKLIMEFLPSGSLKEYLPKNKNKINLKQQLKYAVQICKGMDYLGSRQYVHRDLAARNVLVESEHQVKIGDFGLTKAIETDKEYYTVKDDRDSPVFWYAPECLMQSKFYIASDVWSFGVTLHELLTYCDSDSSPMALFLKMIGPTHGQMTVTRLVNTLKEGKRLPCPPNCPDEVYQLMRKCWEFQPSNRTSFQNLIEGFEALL
How it was run: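 Two-step HTRF KinEASE assay: compound, kinase/biotinylated TK substrate and ATP were incubated at least 30 min at room temperature. Antibody plus streptavidin-XL665 was then added and plates were read after 60 min. Inhibition was derived from emission ratios according to the kit protocol.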

[4] = molecular target: T4, wt human JAK2, catalytic site (Homo sapiens, UniProt O60674); test: HTRF KinEASE assay, JAK2; format: biochemical; conditions: assay format not given (Z'-LYTE or HTRF KinEASE); read-out: IC50, Activity Toward JAK2
T4 construct: wt human JAK2, catalytic site; purchased SignalChem
T4 sequence (O60674 849-1124 limits assumed): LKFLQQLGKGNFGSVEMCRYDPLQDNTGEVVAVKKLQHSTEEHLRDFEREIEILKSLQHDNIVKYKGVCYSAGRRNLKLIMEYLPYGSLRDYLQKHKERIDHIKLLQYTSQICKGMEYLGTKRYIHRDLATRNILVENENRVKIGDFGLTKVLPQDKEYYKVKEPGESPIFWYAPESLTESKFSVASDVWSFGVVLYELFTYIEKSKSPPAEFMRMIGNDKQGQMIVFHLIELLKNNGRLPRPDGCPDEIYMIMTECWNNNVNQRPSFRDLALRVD
Experimental: Basic protocol for HTRF KinEASE assay (Cisbio/FRA) inhibitor studies involved two steps: • Enzymatic step: Addition of 4 μL of test compound in corresponding DMSO dilutions, 4 μL of kinase/substrate mixture, 2 μL of ATP into 384 well small volume plates. Incubation for at least 30 minutes at room temperature. • Detection step: Addition of 5 μL antibody and 5 μL streptavidin-XL665, read plate after 60 minutes. Data analysis of emission ratios according KinEASE assay protocol.
(§2) Kinase and assay components were adjusted to final concentrations according to kit protocol. For TYK2: 2 nM wt human TYK2, catalytic site (SignalChem/CAN), 1 μM HTRF KinEASE-TK Substrate-biotin, 1 μM ATP in 1× Kinase Buffer. For JAK1: 4 nM wt human JAK1, catalytic site (ThermoFisher/USA), 1 μM HTRF KinEASE-TK Substrate-biotin, 2.5 μM ATP in 1× Kinase Buffer. For JAK2: 1 nM wt human JAK2, catalytic site (SignalChem/CAN), 1 μM HTRF KinEASE-TK Substrate-biotin, 100 μM ATP in 1× Kinase Buffer.
as §2

[5] = molecular target: T5, wt human TYK2, catalytic site (Homo sapiens, UniProt P29597); test: HTRF KinEASE assay, TYK2; format: biochemical; conditions: 1 μM ATP; read-out: IC50, Activity Toward TYK2
T5 construct: wt human TYK2, catalytic site; purchased SignalChem
T5 sequence (P29597 897-1176 limits assumed): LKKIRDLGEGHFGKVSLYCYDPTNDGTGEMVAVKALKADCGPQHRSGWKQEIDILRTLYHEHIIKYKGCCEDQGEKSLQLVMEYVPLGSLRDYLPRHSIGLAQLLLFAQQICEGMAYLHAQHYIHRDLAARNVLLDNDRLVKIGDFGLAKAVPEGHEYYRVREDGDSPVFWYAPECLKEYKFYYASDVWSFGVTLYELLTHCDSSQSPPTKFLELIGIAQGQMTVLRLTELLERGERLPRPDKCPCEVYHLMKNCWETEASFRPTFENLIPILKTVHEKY
How it was run: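 HTRF KinEASE-TK readout with 1 μM biotinylated TK substrate in 1× kinase buffer, ≥30 min at room temperature, then antibody/streptavidin-XL665 detection for 60 min. TYK2 at 2 nM with 1 μM ATP; JAK2 at 1 nM with 100 μM ATP. Analysis uses emission ratios.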

T1 sequence (Q5S007 970-2527 G2019S limits assumed): as the sequence (Q5S007 970-2527 limits assumed) above, with G1050S counted along it

Row | IC50 [1] [nM] | IC50 [2] [nM] | IC50 [3] [nM] | IC50 [4] [nM] | IC50 [5] [nM] | SMILES
1 | 100 to 1000 | 100 to 1000 | 10 to 100 | 100 to 1000 | < 10 | NC(=O)c1nn(-c2c(Cl)cccc2Cl)cc1Nc1ccc(C(=O)N2CCOCC2)cc1 [compound 17, 1-(2,6-dichlorophenyl)-4-((4-(morpholine-4-carbonyl)phenyl)amino)-1H-pyrazole-3-carboxamide]
2 | 100 to 1000 | 100 to 1000 | 10 to 100 | 100 to 1000 | < 10 | CN1CCN(C(=O)c2ccc(Nc3cn(-c4c(Cl)cccc4Cl)nc3C(N)=O)cc2)CC1 [compound 32, 1-(2,6-dichlorophenyl)-4-((4-(4-methylpiperazine-1-carbonyl)phenyl)amino)-1H-pyrazole-3-carboxamide]
3 | 100 to 1000 | 100 to 1000 | 100 to 1000 | 100 to 1000 | < 10 | NC(=O)c1nn(-c2c(Cl)cccc2Cl)cc1Nc1ccc(-c2nnc3n2CCOC3)cc1 [compound 57, 1-(2,6-dichlorophenyl)-4-((4-(6,8-dihydro-5H-[1,2,4]triazolo[3,4-c][1,4]oxazin-3-yl)phenyl)amino)-1H-pyrazole-3-carboxamide]
4 | 100 to 1000 | 100 to 1000 | < 10 | 100 to 1000 | < 10 | NC(=O)c1nn(-c2c(Cl)cccc2Cl)nc1Nc1ccc(C(=O)N2CC(C(N)=O)C2)cc1 [compound 108]
5 | 100 to 1000 | 100 to 1000 | < 10 | 100 to 1000 | 10 to 100 | NC(=O)c1nn(-c2c(Cl)cccc2Cl)nc1Nc1ccc(-c2nncn2CC(F)F)cc1 [compound 113, 2-(2,6-dichlorophenyl)-5-((4-(4-(2,2-difluoroethyl)-4H-1,2,4-triazol-3-yl)phenyl)amino)-2H-1,2,3-triazole-4-carboxamide]
6 | 100 to 1000 | 100 to 1000 |  | 100 to 1000 | < 10 | CC(C)n1cnnc1-c1ccc(Nc2nn(-c3c(Cl)cccc3Cl)nc2C(N)=O)cc1 [compound 116, 2-(2,6-dichlorophenyl)-5-((4-(4-isopropyl-4H-1,2,4-triazol-3-yl)phenyl)amino)-2H-1,2,3-triazole-4-carboxamide]
7 | 100 to 1000 | 100 to 1000 | 10 to 100 | 100 to 1000 | < 10 | CN(C)C1CCN(C(=O)c2ccc(Nc3nn(-c4c(Cl)cccc4Cl)nc3C(N)=O)cc2)CC1 [compound 122, 2-(2,6-dichlorophenyl)-5-((4-(4-(dimethylamino)piperidine-1-carbonyl)phenyl)amino)-2H-1,2,3-triazole-4-carboxamide]
8 | 100 to 1000 | 100 to 1000 | < 10 | 100 to 1000 | < 10 | NC(=O)c1nn(-c2c(Cl)cccc2Cl)nc1Nc1ccc(C(=O)N2CC(F)C2)cc1 [compound 129, 2-(2,6-dichlorophenyl)-5-((4-(3-fluoroazetidine-1-carbonyl)phenyl)amino)-2H-1,2,3-triazole-4-carboxamide]
9 |  |  | < 10 | 100 to 1000 | 10 to 100 | NC(=O)c1nn(-c2c(Cl)ccc(F)c2Cl)nc1Nc1ccc(C(=O)N2CC[C@@H](F)C2)cc1 [compound 145, (R)-2-(2,6-dichloro-3-fluorophenyl)-5-((4-(3-fluoropyrrolidine-1-carbonyl)phenyl)amino)-2H-1,2,3-triazole-4-carboxamide]
10 |  |  | < 10 | 100 to 1000 | 10 to 100 | NC(=O)c1nn(-c2c(F)ccc(F)c2Cl)nc1Nc1ccc(C(=O)N2CC[C@@H](F)C2)cc1 [compound 147, (R)-2-(2-chloro-3,6-difluorophenyl)-5-((4-(3-fluoropyrrolidine-1-carbonyl)phenyl)amino)-2H-1,2,3-triazole-4-carboxamide]
11 |  |  | 10 to 100 | 100 to 1000 | < 10 | N#Cc1cccc(Cl)c1-n1nc(Nc2ccc(C(=O)N3CC[C@@H](F)C3)cc2)c(C(N)=O)n1 [compound 162, (R)-2-(2-chloro-6-cyanophenyl)-5-((4-(3-fluoropyrrolidine-1-carbonyl)phenyl)amino)-2H-1,2,3-triazole-4-carboxamide]
12 |  |  | < 10 | 100 to 1000 | < 10 | NC(=O)c1nn(-c2c(Cl)cccc2Cl)nc1Nc1ccc(C(=O)N2CCS(=O)(=O)CC2)cc1 [compound 163, 2-(2,6-dichlorophenyl)-5-((4-(1,1-dioxidothiomorpholine-4-carbonyl)phenyl)amino)-2H-1,2,3-triazole-4-carboxamide]
13 |  |  | 10 to 100 | 100 to 1000 | 10 to 100 | N#Cc1cccc(F)c1-n1nc(Nc2ccc(C(=O)N3CC[C@@H](F)C3)cc2)c(C(N)=O)n1 [compound 164, (R)-2-(2-cyano-6-fluorophenyl)-5-((4-(3-fluoropyrrolidine-1-carbonyl)phenyl)amino)-2H-1,2,3-triazole-4-carboxamide]
14 |  |  | 10 to 100 | 100 to 1000 | 10 to 100 | NC(=O)c1nn(-c2c(Cl)ccc(F)c2F)nc1Nc1ccc(C(=O)N2CC[C@@H](F)C2)cc1 [compound 167, (R)-2-(6-chloro-2,3-difluorophenyl)-5-((4-(3-fluoropyrrolidine-1-carbonyl)phenyl)amino)-2H-1,2,3-triazole-4-carboxamide]
15 |  |  | < 10 | 100 to 1000 | < 10 | N=S1(=O)CCN(C(=O)c2ccc(Nc3nn(-c4c(Cl)cccc4Cl)nc3C(N)=O)cc2)CC1 [compound 169, 2-(2,6-dichlorophenyl)-5-((4-(1-imino-1-oxidothiomorpholine-4-carbonyl)phenyl)amino)-2H-1,2,3-triazole-4-carboxamide]
16 |  |  | < 10 | 100 to 1000 | < 10 | CN=S1(=O)CCN(C(=O)c2ccc(Nc3nn(-c4c(Cl)cccc4Cl)nc3C(N)=O)cc2)CC1 [compound 171, 2-(2,6-dichlorophenyl)-5-((4-(1-(methylimino)-1-oxidothiomorpholine-4-carbonyl)phenyl)amino)-2H-1,2,3-triazole-4-carboxamide]
17 |  |  | 100 to 1000 | 100 to 1000 | 10 to 100 | NC(=O)c1nn(-c2c(Cl)cccc2Cl)cc1Nc1ccc(-c2nncn2CC(F)(F)F)cc1 [compound 210, 1-(2,6-dichlorophenyl)-4-((4-(4-(2,2,2-trifluoroethyl)-4H-1,2,4-triazol-3-yl)phenyl)amino)-1H-pyrazole-3-carboxamide]
18 |  |  | 10 to 100 | 100 to 1000 | < 10 | Cn1nnnc1-c1ccc(Nc2cn(-c3c(Cl)cccc3Cl)nc2C(N)=O)cc1 [compound 238, 1-(2,6-dichlorophenyl)-4-((4-(1-methyl-1H-tetrazol-5-yl)phenyl)amino)-1H-pyrazole-3-carboxamide]
19 |  |  | < 10 | 100 to 1000 | < 10 | NC(=O)c1nn(-c2c(Cl)cccc2Cl)cc1Nc1ccc(C(=O)N2CCS(=O)(=O)CC2)cc1 [compound 451, 1-(2,6-dichlorophenyl)-4-((4-(1,1-dioxidothiomorpholine-4-carbonyl)phenyl)amino)-1H-pyrazole-3-carboxamide]
20 |  |  | 10 to 100 | 100 to 1000 | < 10 | N#Cc1cccc(Cl)c1-n1cc(Nc2ccc(C(=O)N3CCS(=O)(=O)CC3)cc2)c(C(N)=O)n1 [compound 457, 1-(2-chloro-6-cyanophenyl)-4-((4-(1,1-dioxidothiomorpholine-4-carbonyl)phenyl)amino)-1H-pyrazole-3-carboxamide]
